Counter-ions that a name gives are not always drawn.
Experiments:
Experiment in all cases: In vivo antibacterial test (animal protection test, septicemia mouse model)
[1] = test system: ATCC43069 (Neisseria gonorrhoeae); conditions: ATCC43069, sc, ICR mice
Protocol: (§1) The stability test samples in test example 1 were sampled at 0th month and subjected to in vivo antibacterial test; and the stability test samples were sampled at 30th month again, and subjected to in vivo antibacterial test. The in vivo antibacterial tests were performed according to the following method.
(§2) Test Samples: Compositions I to VIII, Sterile Powder for Injection I, Sterile Powder for Injection II, Sterile Powder for Injection IV, Lyophilized Powder for Injection I, Lyophilized Powder for Injection II, Lyophilized Powder for Injection A, Sterile Powder for Injection A and Sterile Powder for Injection B, all of which were obtained from the test example 1 at 0th and 30th month; and control drugs: ceftriaxone sodium, levofloxacin hydrochloride, azithromycin, doxycycline hydrochloride and spectinomycin hydrochloride, wherein, a batch of the control drugs were purchased at 0th month of the stability test so as to match with the test samples at 0th month, and another batch of control drugs were purchased at 30th month of the stability test so as to match with the test samples at 30th month, and the time when the two batches were purchased was within one month from the date of their production.
(§3) Animals: ICR mice weighed 18-22 g, half male and half female.
(§4) Strains: ATCC700603 (Klebsiella pneumoniae), ATCC43069 (Neisseria gonorrhoeae), Q-R (quinolone-resistant Neisseria gonorrhoeae), T-R (tetracycline-resistant Neisseria gonorrhoeae), PP-R (β-lactam-resistant Neisseria gonorrhoeae), MAC-R (macrolide-resistant Neisseria gonorrhoeae), SPE-R (spectinomycin-resistant Neisseria gonorrhoeae) and QS-R (ceftriaxone-resistant Neisseria gonorrhoeae), wherein, ATCC700603, and ATCC43069 were purchased from ATCC; QS-R was prepared by in vitro inducing Neisseria gonorrhoeae, which was sensitive to ceftriaxone, with a subinhibitory concentration of ceftriaxone, culturing at 36° C., 5% CO2, passaging once every 24 hours, and then transferring to a higher concentration of ceftriaxone on GC medium until the strain was resistant to ceftriaxone; and other strains were clinical isolates.
(§5) Aseptic thoracotomy was performed timely on the mice died of infection, the heart blood or intracavity effusion was taken and evenly coated on corresponding agar plates, and incubated for 18 hours at 37° C. […] The obtained strain was used to infect mice again.
(§6) After infection, the number of dead mice was recorded. The minimum dose causing 100% death of mice was 1 MLD, and was used as the dose in animal protection experiments. The bacterial concentration, which was one log lower than 1 MLD and infected the animals without mortality, was named 0.1 MLD. In experiments, a bacteria concentration of 1 MLD was used as the positive control for the infection experiments; and a bacteria concentration of 0.1 MLD was used as the negative control for the infection. In both positive and negative control groups, only the bacteria were administrated and no antibiotic treatment was provided. The mortality of the positive group should be 70% or more, and the mortality of the negative group should be 30% or less.
(§7) When the administration dosage was investigated first, there may be relatively great differences between the dose concentrations of the groups. When the range of the administration dosage was determined, it may be further investigated by reducing the differences until the suitable administration dosage (that is, for the group administrated with the highest concentration, 70% or more infected animals survived; and for the group administrated with the lowest concentration, no less than 70% of infected animals died) was found.

[2] = test system: Q-R (quinolone-resistant Neisseria gonorrhoeae); conditions: sc, strain Q-R, ICR mice
Protocol: as §1, §2, §3, §4, §5, §6, §7

[3] = test system: PP-R (β-lactam-resistant Neisseria gonorrhoeae); conditions: sc, strain PP-R, ICR mice
Protocol: as §1, §2, §3, §4, §5, §6, §7

[4] = test system: QS-R (ceftriaxone-resistant Neisseria gonorrhoeae); conditions: sc, strain QS-R, ICR mice
Protocol: as §1, §2, §3, §4, §5, §6, §7

[5] = test system: T-R (tetracycline-resistant Neisseria gonorrhoeae); conditions: sc, strain T-R, ICR mice
Protocol: as §1, §2, §3, §4, §5, §6, §7

[6] = test system: SPE-R (spectinomycin-resistant Neisseria gonorrhoeae); conditions: sc, strain SPE-R, ICR mice
Protocol: as §1, §2, §3, §4, §5, §6, §7

[7] = test system: MAC-R (macrolide-resistant Neisseria gonorrhoeae); conditions: sc, strain MAC-R, ICR mice
Protocol: as §1, §2, §3, §4, §5, §6, §7

[8] = test system: ATCC700603 (Klebsiella pneumoniae); conditions: ATCC700603, sc, ICR mice
Protocol: as §1, §2, §3, §4, §5, §6, §7

[9] = strain ATCC 43069, samples at 0th month of the stability test, subcutaneous immediately and after 6 hours, 7 days observation
[10] = strain ATCC 43069, samples at 30th month of the stability test (control drugs: batch purchased at 30th month), subcutaneous
[11] = samples at 0th month of the stability test, subcutaneous immediately and after 6 hours, 7 days observation
[12] = samples at 30th month of the stability test (control drugs: batch purchased at 30th month), subcutaneous

SMILES | ED50 [1, 9] [mg/kg] | ED50 [1, 10] [mg/kg] | ED50 [2, 11] [mg/kg] | ED50 [2, 12] [mg/kg] | ED50 [3, 11] [mg/kg] | ED50 [3, 12] [mg/kg] | ED50 [4, 11] [mg/kg] | ED50 [4, 12] [mg/kg] | ED50 [5, 11] [mg/kg] | ED50 [5, 12] [mg/kg] | ED50 [6, 11] [mg/kg] | ED50 [6, 12] [mg/kg] | ED50 [7, 11] [mg/kg] | ED50 [7, 12] [mg/kg] | ED50 ([8]; strain ATCC 700603, samples at 0th month of the stability test, subcutaneous immediately and after 6 hours, 7 days observation) [mg/kg] | ED50 ([8]; strain ATCC 700603, samples at 30th month of the stability test (control drugs: batch purchased at 30th month), subcutaneous) [mg/kg]
CC[C@H]1OC(=O)[C@H](C)[C@@H](O[C@H]2C[C@@](C)(OC)[C@@H](O)[C@H](C)O2)[C@H](C)[C@@H](O[C@@H]2O[C@H](C)C[C@H](N(C)C)[C@H]2O)[C@](C)(O)C[C@@H](C)CN(C)[C@H](C)[C@@H](O)[C@]1(C)O [Azithromycin, azithromycin] | 24 | 31 | 43 | 40 | 49 | 55 | 63 | 69 | 62 | 59 | 59 | 65 | 487 | 497 | – | –
CO/N=C(\C(=O)N[C@@H]1C(=O)N2C(C(=O)O)=C(CSc3nc(=O)c(=O)[nH]n3C)CS[C@H]12)c1csc(N)n1 [Ceftriaxone Sodium, ceftriaxone sodium] | 16 | 21 | 31 | 30 | 208 | 224 | 337 | 373 | 46 | 57 | 52 | 66 | 34 | 37 | 35 | 37
C[C@H]1c2cccc(O)c2C(=O)C2=C(O)[C@]3(O)C(=O)C(C(N)=O)=C(O)[C@@H](N(C)C)[C@@H]3[C@@H](O)[C@@H]21 [Doxycycline Hydrochloride, doxycycline hydrochloride] | 37 | 32 | 55 | 51 | 52 | 47 | 105 | 99 | 456 | 432 | 52 | 51 | 58 | 62 | – | –
C[C@H]1COc2c(N3CCN(C)CC3)c(F)cc3c(=O)c(C(=O)O)cn1c23 [Levofloxacin Hydrochloride, levofloxacin hydrochloride] | 25 | 30 | 573 | 564 | 37 | 42 | 72 | 82 | 48 | 43 | 67 | 72 | 36 | 41 | – | –
CN[C@@H]1[C@H](O)[C@H](NC)[C@H]2O[C@@]3(O)C(=O)C[C@@H](C)O[C@H]3O[C@@H]2[C@H]1O [Spectinomycin Hydrochloride, spectinomycin hydrochloride] | 19 | 22 | 40 | 42 | 56 | 67 | 41 | 56 | 61 | 68 | 621 | 571 | 38 | 42 | – | –
